{"source": "paper PMC10298926", "about": "“Biophysical Characterization of the Binding Mechanism between the MATH Domain of SPOP and Its Physiological Partners” (International Journal of Molecular Sciences, 2023)", "assay_in_all_cases": "Stopped-flow pseudo-first-order binding kinetics", "key": {"SPOP MATH WT": {"target": "SPOP MATH WT (Homo sapiens, UniProt O43791)", "sequence (O43791 1-182)": "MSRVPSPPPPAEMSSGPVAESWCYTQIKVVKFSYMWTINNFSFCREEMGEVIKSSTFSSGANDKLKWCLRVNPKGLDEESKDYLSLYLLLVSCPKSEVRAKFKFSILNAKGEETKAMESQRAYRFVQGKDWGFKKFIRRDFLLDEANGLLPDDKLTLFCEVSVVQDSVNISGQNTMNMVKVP", "conditions": "298 K", "description": "To infer the mechanism of recognition of SPOP MATH, we resorted to performing time-resolved kinetic experiments. SPOP MATH was rapidly mixed with increasing concentrations of dansylated peptides (from 2 to 10 µM for Puc and MacroH2A, and from 2 to 40 µM for PTEN) in a stopped-flow apparatus at 298 K. The binding traces obtained by monitoring the time-resolved fluorescence were satisfactorily fitted to a single exponential equation, allowing calculating the observed rate constants kobs at different peptide concentrations. We then plotted the kobs values over the concentration of dansylated peptide and fitted the data to a simple linear function equation: kobs=kon Peptide+koff where kobs is the observed rate constant; kon and koff are the microscopic association and dissociation rate constants, respectively (Figure 2). The slope and y-axis intercept represent the microscopic association and dissociation rate constant, respectively. To minimize the error associated with the indirect measurement of the dissociation rate constant, we carried out displacement experiments to determine the koff values. The displacement experiments were designed by mixing the preformed complex SPOP MATH-dansylated peptides with a high excess of nondansylated peptide, as described in the Section 4. […] On the basis of these observations, it is possible to conclude that, in the case of binding to MacroH2A and PTEN, there is the presence of an additional step, which escapes detection by stopped-flow experiments and is likely to be negligible in the case of Puc. […] We note that such a case closely resembles the presence of a so-called burst phase, which is frequently observed in protein-folding studies.\n(§1) Binding kinetic experiments were performed on an Applied Photophysics DX-17MV stopped-flow apparatus (Applied Photophysics, Leatherhead, UK). Pseudo-first-order binding experiments were performed by mixing a constant concentration (2 μM) of MATH domain with increasing dansylated peptides concentrations, from 2 to 10 μM of Puc and MacroH2A, and 2 to 40 µM of PTEN. The samples were excited at 280 nm, and the emission fluorescence was recorded by using a bandpass 320 nm cutoff filter. The experiments were performed at 298 K. For ionic strength dependence with Puc and MacroH2A, the buffers used were 50 mM sodium-HEPES, pH 7.2, supplemented with 50 mM, 100 mM, 200 mM, or 500 mM of sodium chloride (NaCl). For the PTEN binding salt dependence experiments, lower concentrations of salt were added for the previous buffer list mentioned (10 mM, 25 mM, and 50 mM of sodium chloride). For each acquisition, five traces were collected, averaged, and satisfactorily fitted to a single exponential equation."}, "SPOP MATH Y88A": {"target": "SPOP MATH Y88A (Homo sapiens, UniProt O43791, Y87A, form not given)", "conditions": "dansylated Puc, 298 K", "description": "(§2) To quantitatively address the role of specific residues in the binding mechanism of SPOP MATH, we resorted to taking advantage of the site-directed mutagenesis and generated ten site-directed mutants corresponding to the residues located in the binding pocket of the SPOP MATH domain. In particular, we produced a set of single mutants where residues R71, Y88, F103, Y124, F125, K130, D131, W132, F134, and K135 were substituted with alanine.\nas §1"}, "SPOP MATH D131A": {"target": "SPOP MATH D131A (Homo sapiens, UniProt O43791, D130A, form not given)", "conditions": "dansylated Puc, 298 K", "description": "as §2, §1"}, "SPOP MATH K135A": {"target": "T1, SPOP MATH K135A (Homo sapiens, UniProt O43791, C159S/C44S/C68S/C93S/K134A)", "T1 construct": "engineered MATH domain of SPOP protein (residues 1–182); His-tag; made in house; host or cells: Escherichia coli BL21 (DE3)", "conditions": "dansylated Puc, 298 K", "description": "as §2, §1"}, "SPOP MATH F134A": {"target": "SPOP MATH F134A (Homo sapiens, UniProt O43791, F133A, form not given)", "conditions": "dansylated Puc, 298 K", "description": "as §2, §1"}, "SPOP MATH Y125A": {"target": "SPOP MATH Y125A (Homo sapiens, UniProt O43791, Y123A, form not given)", "conditions": "dansylated Puc, 298 K", "description": "as §2, §1"}, "SPOP MATH R71A": {"target": "SPOP MATH R71A (Homo sapiens, UniProt O43791, R70A, form not given)", "conditions": "dansylated Puc, 298 K", "description": "as §2, §1"}, "SPOP MATH K130A": {"target": "SPOP MATH K130A (Homo sapiens, UniProt O43791, K129A, form not given)", "conditions": "dansylated Puc, 298 K", "description": "as §2, §1"}}, "note": "Where a SMILES comes first, the peptide text is derived from it.", "data": [{"smiles": "CC(C)[C@H](NC(=O)[C@H](CCC(=O)O)NC(=O)[C@H](CC(=O)O)NS(=O)(=O)c1cccc2c(N(C)C)cccc12)C(=O)N[C@H](C(=O)N[C@@H](CO)C(=O)N[C@H](C(=O)N[C@H](C(=O)N[C@@H](CO)C(=O)N[C@@H](CO)C(=O)N[C@@H](CO)C(=O)O)[C@@H](C)O)[C@@H](C)O)[C@@H](C)O", "note": "[Puc] (HELM PEPTIDE1{[CN(C)c1cccc2c(S(=O)(=O)[*:2])cccc12].D.E.V.T.S.T.T.S.S.S}$$$$V2.0)", "values": [{"measurement": "Kd", "setting": "SPOP MATH WT; read-out: Kinetics KD, WT, from kon (pseudo-first-order) and koff (displacement)", "result": "1400 ± 400", "unit": "nM"}, {"measurement": "kon", "setting": "SPOP MATH WT; stopped-flow, 2 µM MATH domain, dansylated peptide 2 to 10 µM (Puc, MacroH2A) or 2 to 40 µM (PTEN), 50 mM sodium-HEPES, pH 7.2 (for ionic strength series), five traces averaged, slope of kobs vs peptide", "result": "19 ± 1", "unit": "µM⁻¹ s⁻¹"}, {"measurement": "Kd", "setting": "SPOP MATH Y88A; kinetic KD from kon and koff", "result": "21 ± 4", "unit": "µM"}, {"measurement": "kon", "setting": "SPOP MATH Y88A; stopped-flow, 2 µM MATH domain", "result": "14.4 ± 0.8", "unit": "µM⁻¹ s⁻¹"}, {"measurement": "Kd", "setting": "SPOP MATH D131A; kinetic KD from kon and koff", "result": "13.3 ± 0.2", "unit": "µM"}, {"measurement": "kon", "setting": "SPOP MATH D131A; stopped-flow, 2 µM MATH domain", "result": "18.2 ± 0.1", "unit": "µM⁻¹ s⁻¹"}, {"measurement": "Kd", "setting": "SPOP MATH K135A; kinetic KD from kon and koff", "result": "7.2 ± 0.4", "unit": "µM"}, {"measurement": "kon", "setting": "SPOP MATH K135A; stopped-flow, 2 µM MATH domain", "result": "6.3e+06 ± 500000", "unit": "M⁻¹ s⁻¹"}, {"measurement": "Kd", "setting": "SPOP MATH F134A; kinetic KD from kon and koff", "result": "1700 ± 100", "unit": "nM"}, {"measurement": "kon", "setting": "SPOP MATH F134A; stopped-flow, 2 µM MATH domain", "result": "9.4 ± 0.2", "unit": "µM⁻¹ s⁻¹"}, {"measurement": "Kd", "setting": "SPOP MATH Y125A; kinetic KD from kon and koff", "result": "11.7 ± 0.2", "unit": "µM"}, {"measurement": "kon", "setting": "SPOP MATH Y125A; stopped-flow, 2 µM MATH domain", "result": "6.71 ± 0.02", "unit": "µM⁻¹ s⁻¹"}, {"measurement": "Kd", "setting": "SPOP MATH R71A; kinetic KD from kon and koff", "result": "3.8 ± 0.1", "unit": "µM"}, {"measurement": "kon", "setting": "SPOP MATH R71A; stopped-flow, 2 µM MATH domain", "result": "8.8 ± 0.5", "unit": "µM⁻¹ s⁻¹"}, {"measurement": "Kd", "setting": "SPOP MATH K130A; kinetic KD from kon and koff", "result": "9.5 ± 0.1", "unit": "µM"}, {"measurement": "kon", "setting": "SPOP MATH K130A; stopped-flow, 2 µM MATH domain", "result": "13 ± 2", "unit": "µM⁻¹ s⁻¹"}]}]}
